Reference: patent US20250353891A1 (MEDIMMUNE LIMITED, priority 2022, published 2025)
Starred links: 1 amine or outer side, 2 acyl side, 3 side chain; linkers in the order of their positions; H or OH if unused. Non-standard residues stand in square brackets, D forms with d. Residues, ends and D or L forms follow the SMILES beside them. Groups on a side chain read outwards from the residue. *: point of attachment. C20 diacid = O=C(O)CCCCCCCCCCCCCCCCCCC(=O)*; C18 diacid = O=C(O)CCCCCCCCCCCCCCCCC(=O)*; γGlu = O=C(O)[C@H](CCC(=O)[*:2])N[*:1]; αMeF = C[C@](N)(Cc1ccccc1)C(=O)O; AEEA = NCCOCCOCC(=O)O; Aib = CC(C)(N)C(=O)O

Columns and labels:
wildtype (WT) mice = test: Glucose change in wildtype mice; format: in vivo, mouse; details: s.c., 60 min vs 0 min, no somatostatin pretreatment
Procedure, shortened: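 Wildtype mice aged 8-14 weeks, fasted 2 h, sometimes pre-treated with octreotide 10 mg/kg 30 min before peptide injection. Blood glucose by glucometer at -30, 0, 30, 60, 120, 180, 240 and 360 min; n=4-8/group, mice reused up to 3 times with ≥1 week wash-out.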

[1] = system: GLP-1R knockout (KO) mice; test: Glucose change in GLP-1R knockout mice; format: in vivo, mouse; details: GLP-1R KO mice, s.c., 60 min vs 0 min, no somatostatin pretreatment
Procedure, shortened: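 GLP-1R knockout mice (n=4-8/group, sorted by body weight) were fasted 2 h, and in some studies pretreated with octreotide 10 mg/kg 30 min before peptide injection. Mice were reused up to 3 times with at least 1-week wash-out.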

[2] = target: human GLP-1 receptor (hGLP-1R) (Homo sapiens, UniProt P43220); test: cAMP production (HTRF) in CHO cells expressing hGLP-1R; format: cell-based; parameters: expressed in transfected cells; details: for EC50: Table 6, peptides modified at position 17, cAMP in CHO hGLP-1R cells, geometric mean, read-out: hGLP-1R EC50; for % Relative Potency Ratio: Table 6, % GLP-1R activity relative to GLP-1 / % GlucR activity relative to glucagon
Sequence of human GLP-1 receptor (hGLP-1R) (P43220 24-463): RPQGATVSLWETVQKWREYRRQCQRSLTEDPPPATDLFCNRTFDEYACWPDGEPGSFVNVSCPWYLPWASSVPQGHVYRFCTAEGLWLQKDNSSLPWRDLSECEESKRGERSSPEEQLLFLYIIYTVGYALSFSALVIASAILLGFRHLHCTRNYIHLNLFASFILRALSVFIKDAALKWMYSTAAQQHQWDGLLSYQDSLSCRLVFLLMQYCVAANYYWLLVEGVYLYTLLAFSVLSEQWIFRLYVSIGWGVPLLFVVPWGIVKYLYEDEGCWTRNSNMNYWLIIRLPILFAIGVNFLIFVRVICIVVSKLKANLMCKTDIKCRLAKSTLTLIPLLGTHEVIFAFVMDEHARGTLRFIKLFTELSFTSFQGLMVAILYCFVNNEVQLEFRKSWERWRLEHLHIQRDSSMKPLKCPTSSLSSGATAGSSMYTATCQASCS
Procedure, shortened: (§1)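 Cells were resuspended in assay buffer at batch-optimized density, typically 1×10^5 cells/mL for hGLP-1R and 2×10^5 cells/mL for hGCGR. After 30 min incubation at room temperature with compound, cAMP was measured by two-step HTRF. EC50 values came from 4-parameter logistic fits of % Delta F.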

[3] = target: human glucagon receptor (hGCGR) (Homo sapiens, UniProt P47871); test: cAMP production (HTRF) in CHO cells expressing hGCGR; format: cell-based; parameters: expressed in transfected cells; details: Table 6, peptides modified at position 17; cAMP in CHO hGCGR cells; geometric mean; read-out: hGluc-R EC50
Sequence of human glucagon receptor (hGCGR) (P47871 26-477): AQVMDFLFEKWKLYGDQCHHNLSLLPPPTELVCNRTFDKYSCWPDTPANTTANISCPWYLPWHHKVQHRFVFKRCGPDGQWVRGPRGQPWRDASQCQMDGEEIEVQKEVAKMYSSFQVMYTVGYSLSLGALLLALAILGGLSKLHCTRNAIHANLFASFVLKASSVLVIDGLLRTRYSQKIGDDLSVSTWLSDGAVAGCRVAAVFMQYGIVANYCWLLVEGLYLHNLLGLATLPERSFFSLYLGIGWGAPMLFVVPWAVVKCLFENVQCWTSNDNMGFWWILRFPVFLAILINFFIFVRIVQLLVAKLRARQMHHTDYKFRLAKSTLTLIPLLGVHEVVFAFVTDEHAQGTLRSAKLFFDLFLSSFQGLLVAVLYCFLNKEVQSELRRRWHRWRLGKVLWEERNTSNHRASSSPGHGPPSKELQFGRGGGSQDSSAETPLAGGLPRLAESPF
Procedure, shortened: as §1

in vivo = details: male, C57BL/6, mouse, 10 nmol/kg; for half-life: iv
Source text: Selected test peptides (n=8) were profiled for pharmacokinetic (PK) properties in the mouse after single intravenous (i.v.) or subcutaneous (s.c.) dose. A subset (n=4) meeting the acceptance criteria was subsequently profiled in the dog (single i.v. dose) and non-human primate (single i.v. and s.c. dose). […] Low-binding plasticware containers were used during preparation and sample handling to avoid non-specific binding.
After dosing, PK samples were collected from the dorsal metatarsal vein. Blood of each sample was transferred into plastic micro centrifuge tubes containing EDTA-K2, inverted several times for proper mixing of contents and then placed on wet ice. The blood samples were centrifuged at 4° C. to obtain plasma and stored at −75° C. prior to analysis.
Samples analysis: Samples were analyzed by LC-MS/MS. Calibration standards were injected at the beginning and end of each batch and the determined concentration for each prepared standard was used to construct a calibration curve. Plasma and dose aliquot sample concentrations were determined from the plasma calibration curve.
Data analysis: Plasma concentration data was analyzed by non-compartmental analysis (NCA) using Phoenix Winnonlin v. 8.3.3.33. Linear trapezoidal rule was used for increasing values and log trapezoidal rule was used for decreasing values, applying uniform weighting for lambda_z calculations. Subcutaneous bioavailability was calculated as the ratio AUC(s.c.)0-inf/AUC(i.v.)0-inf. Reported values (Table 18) represent the mean of the individual estimates.

[4] = Mouse acute food intake study; format: in vivo; details: male C57Bl/6 mice, s.c., dose 10 nmol/kg, cumulative food intake at 24 hr vs vehicle
Procedure, shortened: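 Single-housed male C57Bl/6 mice (8-9 weeks on arrival), chow-fed, acclimated and sham-dosed ≥2 times, were fasted 6-8 h, then given vehicle or peptide subcutaneously at 5 mL/kg 1-2 h before lights out. Food intake was recorded automatically over 48 h and analysed as cumulative intake.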

Row | Structure (SMILES) | WT % glucose change 60 min (wildtype (WT) mice; 10 nmol/kg) [%] | WT % glucose change 60 min (wildtype (WT) mice; 30 nmol/kg) [%] | GLP-1R KO % glucose change - 60 min ([1]; 10 nmol/kg) [%] | GLP-1R KO % glucose change - 60 min ([1]; 30 nmol/kg) [%] | EC50 [2] [nM] | % Relative Potency Ratio [2] | EC50 [3] [nM] | bioavailability (in vivo) [%] | half-life (in vivo) [min] | 24 hr % Vehicle Food Intake [4] [%]
1 | CC(C)C[C@H](NC(=O)[C@H](Cc1c[nH]c2ccccc12)NC(=O)[C@H](CCCNC(=N)N)NC(=O)[C@@H](NC(=O)[C@H](Cc1ccccc1)NC(=O)[C@H](CC(=O)O)NC(=O)[C@H](CCC(N)=O)NC(=O)[C@H](C)NC(=O)[C@H](CCCNC(=N)N)NC(=O)[C@H](CCCCNC(=O)COCCOCCNC(=O)COCCOCCNC(=O)CC[C@H](NC(=O)CCCCCCCCCCCCCCCCC(=O)O)C(=O)O)NC(=O)[C@@H](NC(=O)[C@H](CC(=O)O)NC(=O)[C@H](CC(C)C)NC(=O)[C@](C)(Cc1ccccc1)NC(=O)[C@H](CCCCN)NC(=O)[C@H](CO)NC(=O)[C@@H](NC(=O)[C@H](CC(=O)O)NC(=O)[C@H](CO)NC(=O)[C@@H](NC(=O)[C@H](Cc1ccccc1)NC(=O)[C@@H](NC(=O)CNC(=O)[C@H](CCC(N)=O)NC(=O)C(C)(C)NC(=O)[C@@H](N)Cc1c[nH]cn1)[C@@H](C)O)[C@@H](C)O)C(C)C)[C@@H](C)O)C(C)C)C(=O)N[C@@H](CC(C)C)C(=O)N[C@@H](CCC(=O)O)C(=O)NC(C)(C)C(=O)NCC(=O)O [Peptide 140] (H-H[Aib]QGTFTSDVSK[αMeF]LDTK([AEEA-AEEA-γGlu-C18 diacid])RAQDFVRWLLE[Aib]G-OH; N-terminus assumed) | −32.1 | −29.0 | 46.2 | 59.8 | 0.0227 | 4.0 | 0.0464 | 102 | 384 | 65.4
2 | CC(C)C[C@H](NC(=O)[C@H](Cc1c[nH]c2ccccc12)NC(=O)[C@H](CCC(N)=O)NC(=O)[C@@H](NC(=O)[C@H](Cc1ccccc1)NC(=O)[C@H](CC(=O)O)NC(=O)[C@H](CCCNC(=N)N)NC(=O)[C@H](C)NC(=O)[C@H](CCCNC(=N)N)NC(=O)[C@H](CCCCNC(=O)COCCOCCNC(=O)COCCOCCNC(=O)CC[C@H](NC(=O)CCCCCCCCCCCCCCCCC(=O)O)C(=O)O)NC(=O)[C@H](CCCCN)NC(=O)[C@H](CC(=O)O)NC(=O)[C@H](CC(C)C)NC(=O)[C@](C)(Cc1ccccc1)NC(=O)[C@H](CCCCN)NC(=O)[C@H](CO)NC(=O)[C@@H](NC(=O)[C@H](CC(=O)O)NC(=O)[C@H](CO)NC(=O)[C@@H](NC(=O)[C@H](Cc1ccccc1)NC(=O)[C@@H](NC(=O)CNC(=O)[C@H](CCC(N)=O)NC(=O)C(C)(C)NC(=O)[C@@H](N)Cc1c[nH]cn1)[C@@H](C)O)[C@@H](C)O)C(C)C)C(C)C)C(=O)N[C@@H](CC(C)C)C(=O)NC(C)(C)C(=O)N[C@@H](CCC(=O)O)C(N)=O [Peptide 472] (H-H[Aib]QGTFTSDVSK[αMeF]LDKK([AEEA-AEEA-γGlu-C18 diacid])RARDFVQWLL[Aib]E-NH2; N-terminus assumed) |  |  |  |  | 0.00763 | 2.9 | 0.0111 | 83 | 174 | 
3 | CC(C)C[C@H](NC(=O)[C@H](CC(C)C)NC(=O)[C@H](Cc1c[nH]c2ccccc12)NC(=O)[C@H](CCCNC(=N)N)NC(=O)[C@@H](NC(=O)[C@H](Cc1ccccc1)NC(=O)[C@H](CC(=O)O)NC(=O)[C@H](CCC(N)=O)NC(=O)[C@H](C)NC(=O)[C@H](CCCNC(=N)N)NC(=O)[C@H](CCCCNC(=O)COCCOCCNC(=O)COCCOCCNC(=O)CC[C@H](NC(=O)CCCCCCCCCCCCCCCCCCC(=O)O)C(=O)O)NC(=O)[C@@H](NC(=O)[C@H](CC(=O)O)NC(=O)[C@H](CC(C)C)NC(=O)[C@](C)(Cc1ccccc1)NC(=O)[C@H](CCCCN)NC(=O)[C@H](CO)NC(=O)[C@@H](NC(=O)[C@H](CC(=O)O)NC(=O)[C@H](CO)NC(=O)[C@@H](NC(=O)[C@H](Cc1ccccc1)NC(=O)[C@@H](NC(=O)CNC(=O)[C@H](CCC(N)=O)NC(=O)C(C)(C)NC(=O)[C@@H](N)Cc1c[nH]cn1)[C@@H](C)O)[C@@H](C)O)C(C)C)[C@@H](C)O)C(C)C)C(=O)N[C@@H](C)C(=O)NC(C)(C)C(=O)NCC(N)=O [Peptide 477] (H-H[Aib]QGTFTSDVSK[αMeF]LDTK([AEEA-AEEA-γGlu-C20 diacid])RAQDFVRWLLA[Aib]G-NH2; N-terminus assumed) |  |  |  |  | 0.0541 | 4.3 | 0.117 | 50 | 534 | 
